How the values were obtained:
Assay type in all cases: in vivo
[1] = system: Abutilon theoprasti; assay: Greenhouse postemergence herbicidal activity on ABUTH, 20 DAT; conditions: 20 DAT
Description: (§1) For the post emergence treatment, the plants were first grown to the 2 leaf station (GS 12) and applied at GS 12-19 depending on the species. The herbicidal compositions were suspended or emulsified in water as distribution medium and sprayed using finely distributing nozzles.
(§2) The plants have been cultivated due to their individual requirements at 10 to 25° C. and. 20 to 35° C. The plants were irrigated due to their necessity.
(§3) The respective stated components A), were formulated as a 5% by weight strength emulsion concentrate containing wettol EM 31 20% and Cyclohexanone 80%. The respective stated components B), were formulated as either emulsifiable concentrates (EC), soluble liquids (SL), suspension concentrates (SC) or soluble granules (SG) as indicated in the table below. Component A, component B and the solvent system are introduced into the spray liquor used for applying the active compound. In the examples, the solvent used was water containing 1% Dash (Agnique ME 181 37.5%, Lutensit A-EP 22.5%, and Oleic Acid 5%) and 2% ammonium suflate.
(§4) In the following experiments, the herbicidal activity for the individual herbicide compounds (solo and mixture applications), the herbicidal succession was assessed 20 days after treatment (DAT). The evaluation for the damage on undesired weeds caused by the chemical compositions was carried out using a scale from 0 to 100%, compared to the untreated control plants. Here, 0 means no damage and 100 means complete destruction of the plants. The plants used in the greenhouse experiments belonged to the following species:
(§5) The value E, which corresponds to the effect (in %) that is to be expected if the activity of the individual compounds is additive, was calculated using the method of S. R. Colby (1967) “Calculating synergistic and antagonistic responses of herbicide combinations”, Weeds 15, p. 22 ff. Colby calculation for 2 way mixtures:
(§6) where: • X=effect in percent using herbicide A at an application rate a; • Y=effect in percent using herbicide B at an application rate b; • E=expected effect (in %) of A+B at application rates a+b
(§7) If the value observed in this manner is higher than the value E calculated according to Colby, a synergistic effect is present.

[2] = system: Ambrosia elatior; assay: Greenhouse postemergence herbicidal activity on AMBEL, 20 DAT; conditions: AMBEL, postemergence, 20 DAT
Description: as §1, §2, §3, §4, §5, §6, §7

[3] = system: Polygonum convolvulus; assay: Greenhouse postemergence herbicidal activity on POLCO, 20 DAT; conditions: POLCO, postemergence, 20 DAT
Description: as §1, §2, §3, §4, §5, §6, §7

[4] = system: Chenopodium album; assay: Greenhouse postemergence herbicidal activity on CHEAL, 20 DAT; conditions: 20 DAT
Description: as §1, §2, §3, §4, §5, §6, §7

[5] = system: Conyza canadiensis; assay: Greenhouse postemergence herbicidal activity on ERICA, 20 DAT; conditions: ERICA, postemergence, 20 DAT
Description: as §1, §2, §3, §4, §5, §6, §7

[6] = system: Ipomoea hederacea; assay: Greenhouse postemergence herbicidal activity on IPOHE, 20 DAT; conditions: 20 DAT
Description: as §1, §2, §3, §4, §5, §6, §7

[7] = system: Polygonum aviculare; assay: Greenhouse postemergence herbicidal activity on POLAV, 20 DAT
Description: as §1, §2, §3, §4, §5, §6, §7

[8] = system: Polygonum persicaria; assay: Greenhouse postemergence herbicidal activity on POLPE, 20 DAT; conditions: postemergence, 20 DAT
Description: as §1, §2, §3, §4, §5, §6, §7

[9] = system: Stellaria media; assay: Greenhouse postemergence herbicidal activity on STEME, 20 DAT; conditions: STEME, postemergence, 20 DAT
Description: as §1, §2, §3, §4, §5, §6, §7

[10] = system: Sinapis arvensis; assay: Greenhouse postemergence herbicidal activity on SINAR, 20 DAT; conditions: 50 gai/ha
Description: as §1, §2, §3, §4, §5, §6, §7

[11] = system: Kochia scoparia; assay: Greenhouse postemergence herbicidal activity on KCHSC, 20 DAT; conditions: 25 gai/ha, 20 DAT
Description: as §1, §2, §3, §4, §5, §6, §7

[12] = system: Amaranthus retroflexus; assay: Greenhouse postemergence herbicidal activity on AMARE, 20 DAT; conditions: AMARE, postemergence, 20 DAT
Description: as §1, §2, §3, §4, §5, §6, §7

[13] = system: Matricaria chamomilla; assay: Greenhouse postemergence herbicidal activity on MATCH, 20 DAT; conditions: 20 DAT
Description: as §1, §2, §3, §4, §5, §6, §7

[14] = system: Sorghum bicolor; assay: Greenhouse postemergence herbicidal activity on SORVU, 20 DAT; conditions: SORVU, 200 gai/ha, postemergence, 20 DAT
Description: as §1, §2, §3, §4, §5, §6, §7

## O=C(O)COc1ccc(Cl)cc1Cl [2,4-D]
[1]; 25 gai/ha
  % activity, solo 2,4-D: 50%
[1]; 50 gai/ha
  % activity, solo 2,4-D: 80%
[1]; 100 gai/ha
  % activity, solo 2,4-D: 90%
[2]; 25 gai/ha
  % activity, solo 2,4-D: 45%
[3]; 25 gai/ha
  % activity, solo 2,4-D: 30%
[3]; 50 gai/ha
  % activity, solo 2,4-D: 40%
[3]; 100 gai/ha
  % activity, solo 2,4-D: 70%
[4]; 50 gai/ha
  % activity, solo 2,4-D: 90%
[4]; 100 gai/ha
  % activity, solo 2,4-D: 90%
[5]; 25 gai/ha
  % activity, solo 2,4-D: 60%
[5]; 100 gai/ha
  % activity, solo 2,4-D: 75%
[6]; 25 gai/ha
  % activity, solo 2,4-D: 98%
[6]; 100 gai/ha
  % activity, solo 2,4-D: 98%
[7]; 25 gai/ha
  % activity, solo 2,4-D: 10%
[7]; 50 gai/ha
  % activity, solo 2,4-D: 98%
[8]; POLPE, 25 gai/ha
  % activity, solo 2,4-D: 10%
[8]; POLPE, 50 gai/ha
  % activity, solo 2,4-D: 40%
[8]; POLPE, 100 gai/ha
  % activity, solo 2,4-D: 70%
[9]; 25 gai/ha
  % activity, solo 2,4-D: 0%
[9]; 50 gai/ha
  % activity, solo 2,4-D: 0%
[9]; 100 gai/ha
  % activity, solo 2,4-D: 30%
[10]
  % activity, solo 2,4-D: 80%
[11]
  % activity, solo 2,4-D: 90%

## Cc1cc(Cl)ccc1OCC(=O)O [MCPA]
[1]; 50 gai/ha
  % activity, solo MCPA: 60%
[1]; 200 gai/ha
  % activity, solo MCPA: 75%
[2]; 50 gai/ha
  % activity, solo MCPA: 65%
[2]; 100 gai/ha
  % activity, solo MCPA: 65%
[3]; 50 gai/ha
  % activity, solo MCPA: 0%
[3]; 100 gai/ha
  % activity, solo MCPA: 0%
[3]; 200 gai/ha
  % activity, solo MCPA: 0%
[12]; 50 gai/ha
  % activity, solo MCPA: 55%
[12]; 100 gai/ha
  % activity, solo MCPA: 65%
[12]; 200 gai/ha
  % activity, solo MCPA: 90%
[4]; 200 gai/ha
  % activity, solo MCPA: 90%
[5]; 50 gai/ha
  % activity, solo MCPA: 60%
[6]; 50 gai/ha
  % activity, solo MCPA: 98%
[6]; 100 gai/ha
  % activity, solo MCPA: 98%
[6]; 200 gai/ha
  % activity, solo MCPA: 98%
[13]; 50 gai/ha
  % activity, solo MCPA: 20%
[13]; 100 gai/ha
  % activity, solo MCPA: 30%
[7]; 50 gai/ha
  % activity, solo MCPA: 10%
[7]; 100 gai/ha
  % activity, solo MCPA: 70%
[7]; 200 gai/ha
  % activity, solo MCPA: 98%
[8]; POLPE, 50 gai/ha
  % activity, solo MCPA: 20%
[8]; POLPE, 200 gai/ha
  % activity, solo MCPA: 60%
[8]; POPLE, 100 gai/ha
  % activity, solo MCPA: 35%
[9]; 50 gai/ha
  % activity, solo MCPA: 0%
[9]; 100 gai/ha
  % activity, solo MCPA: 0%
[9]; 200 gai/ha
  % activity, solo MCPA: 20%
[14]
  % activity, solo MCPA: 30%

— patent US20180343865A1, “HERBICIDAL COMPOSITIONS COMPRISING ISOXAZOLO[5,4-B]PYRIDINES” (BASF SE, priority 2015, published 2018)
